Experiments:
[1] = test system: NO metabolite (NOx:NO2+NO3); experiment: Plasma NO metabolite (NOx) after oral administration to rabbits (Experimental Example 2); format: in vivo; settings: male New Zealand rabbits, fasted 16 hr, oral by sonde, groups 1 and 2: 2.85 mmol/kg, group 3: 1.43 mmol/kg each
Experimental: (§1) 14-Week-old male New Zealand rabbits (KITAYAMA LABES Co., Ltd.) were purchased, preliminarily bred for 28 days and divided into 3 groups (n=3 or 4). After fasting for 16 hr, L-citrulline and L-arginine were orally administered to the rabbits of group 1 and group 2, respectively, by a sonde to achieve 2.85 mmol/kg per rabbit for both (499.3 mg/kg and 496.5 mg/kg, respectively). Moreover, L-citrulline and L-arginine were orally administered to the rabbits of group 3 by a sonde to achieve 1.43 mmol/kg per rabbit (250.5 mg/kg and 249.1 mg/kg, respectively).
(§2) The blood was collected from the ear vein before administration, and 30 min, 1, 2 and 4 hr after administration, and subjected to quantification of L-arginine, NO metabolite and cGMP in plasma. The blood was collected in a 1.5 mL tube containing 1% heparin dispensed thereto in advance (for quantification of L-arginine) and a disodium ethylenediaminetetraacetate (EDTA-2Na)-added tube (for quantification of NO metabolite and cGMP), and centrifuged (12000 rpm, 10 min, 4° C.) to give plasma. In heparin plasma thereafter, 3% sulfosalicylic acid in the same amount as the plasma was added and blended, and the mixture was stood still on ice for 1 hr and centrifuged (12000 rpm, 10 min, 4° C.) to give deproteinized plasma as a sample for analysis.
(§3) L-arginine in the sample for analysis was quantified using an automatic amino acid analyzer (JOEL JLC-500/V), NO metabolite (NOx:NO2+NO3) was quantified using a nitrogen oxide analyzer (Eicom ENO10), and cGMP was quantified by […] (Amersham Pharmacia RPN226).
(§4) Moreover, the area under the blood concentration-time curves of L-arginine, NO metabolite and cGMP in plasma were calculated, and the results are shown in Table 2-Table 4.

cGMP = experiment: Plasma cGMP after oral administration to rabbits (Experimental Example 2); format: in vivo; settings: male New Zealand rabbits, fasted 16 hr, oral by sonde, groups 1 and 2: 2.85 mmol/kg, group 3: 1.43 mmol/kg each
Experimental: as §1, §2, §3, §4

| SMILES | AUC of NO metabolite in plasma, 0-30 min [1] | AUC of NO metabolite in plasma, 0-1 hr [1] | AUC of cGMP in plasma, 0-30 min (cGMP) | AUC of cGMP in plasma, 0-1 hr (cGMP) |
| --- | --- | --- | --- | --- |
| N=C(N)NCCC[C@H](N)C(=O)O [group 2, L-arginine] | 0.3 nmol·h/mL | 10.1 nmol·h/mL | 0.028 nmol·h/mL | 0.10 nmol·h/mL |
| NC(=O)NCCC[C@H](N)C(=O)O [group 1, L-citrulline] | 8.1 nmol·h/mL | 25.7 nmol·h/mL | 0.033 nmol·h/mL | 0.12 nmol·h/mL |
